Entries after “also recorded” stand apart in the source; their conditions may differ. Like-named read-outs stand apart in the source and are kept apart here.
Experiments:
hair growth [1] = details: humans; cited from earlier work
interferon (IFN) [2] = details: humans; cited from earlier work
interferon (IFN) [3] = details: mice; cited from earlier work
IL-1, IL-6, TNF-α, IL-10 = details: cited from earlier work
[4] = tested on: hair shedding / hair growth of the scalp in patients; assay: Small-scale human clinical study of 0.01% AS101 topical spray, TrichoScan hair density analysis; format: in vivo
From the text: Two small-scale human clinical studies were each conducted over a 6 month period to evaluate the potential use of an 0.01% AS101 spray formulation for the prevention of hair shedding and/or enhancing hair growth. Patients received no other alopecia treatment for at least 3 months prior to commencement of the study.
The sample group consisted of 36 patients, of which 6 withdrew due to non-compliance. Data from a further 14 patients was considered to be unsuitable for analysis with the TrichoScan system, for example, due to untraceable tattoos. 16 patients were therefore available for evaluation.
During an initial visit, a designated area of the scalp (about 0.7 cm^2) was shaved. Three days later, the area was tattooed using red ink, and photographed (Nikon digital camera). Patients were provided with a topical spray composition comprising 0.01% AS101 in 20% propylene glycol, 20% water and 60% ethyl alcohol, and were instructed to apply about 2 ml of the composition on the designated area on a daily basis for the first week, and once a day, twice a week thereafter. Patients were examined upon enrollment, and then after about 2 months, after about 3 months, and after about 6 months. Hair density, terminal hair density, and vellus hair density were analyzed, using the DatInf^R Image DB image archiving system, and TichoScan software.
Results were calculated in terms of hair density, terminal hair density, and vellus hair density.
FIGS. 2a and 2b present the data obtained for the hair density, terminal hair density and vellus hair density, each per cm^2, with two representative individuals of the study. The above parameters were measured at commencement of the study, after about 1 month, after about 3 months, and after about 6 months. All results were obtained using the DatInf^R Image DB image archiving system, and TichoScan software.

KGF expression = details: cultured fibroblasts; via Cys118 of p21ras, ras signalling pathway; cited from earlier work
[5] = tested on: bone marrow toxicity and alopecia induced by chemotherapy; details: cancer patients; cited from earlier work
hair growth [6] = details: nude mice, normal mice; in nude mice systemic, oral or topical; cited from earlier work
anagen / catagen = details: C57BL/6 mouse model; cited from earlier work

In the case of `Cl[TeH]1(Cl)(Cl)OCCO1` [AS101, ammonium trichloro(dioxyethylene-O,O′)tellurate], the “induction of hair growth” value (hair growth [1]) is given as “induce hair growth”, the “interferon (IFN) induction” value (interferon (IFN) [2]) is given as “potent activator; also recorded: potent inducer” and the “interferon (IFN) induction” value (interferon (IFN) [3]) is given as “potent activator; also recorded: potent inducer”. For the same compound, the IL-10 inhibition (IL-1, IL-6, TNF-α, IL-10; m-RNA level) was “inhibit IL-10 at the m-RNA level”, the “secretion of cytokines such as IL-1, IL-6 and TNF-α” value (IL-1, IL-6, TNF-α, IL-10; macrophages are one main target) was “induce the secretion” and the side-effects ([4]; 0.01% AS101 topical spray, 6 months) was “No side-effects were observed”. For the same compound, the “patients responding partially (increase observed during part of the treatment period)” value ([4]; 0.01% AS101 topical spray, 6 months, 16 evaluable patients) was 18.75%, the “patients who completed the study responding with a consistent increase in hair density” value ([4]; 0.01% AS101 topical spray, about 2 ml, daily first week then twice a week, 6 months, 16 evaluable patients) was 37.5% and the “hair density, terminal hair density and vellus hair density per cm^2” value ([4]; after about 1 month, representative person and person (FIGS. 2a, 2b)) was “significant increase”. For the same compound, the KGF expression (KGF expression) was “upregulates KGF expression”, the “protection from bone marrow toxicity and alopecia induced by chemotherapy” value [5] was “ability to protect” and the “induction of hair growth” value (hair growth [6]) was “induce hair growth”. For the same compound, the “anagen induction and retardation of spontaneous catagen” value (anagen / catagen) was “induce anagen and retard spontaneous catagen”.

From patent publication US20090269418A1, “Compositions and Methods for Inducing Hair Growth” (BioMas Ltd, priority 2004, published 2009)
